In PubChem BioAssay (NCI):
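Growth conditions: 96-well plates. Treatment: test compound, 48 hours, 5 concentrations. Analysis: linear interpolation between bracketing concentrations; unreached endpoints set to highest concentration. GI50 is the concentration that inhibits growth by half. The concentration for full growth arrest is given as TGI.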

What was measured:
Assay in all cases: NCI-60 cell line screen, 48 h
RPMI-8226 leukemia = tested on: RPMI-8226 leukemia
786-0 renal = tested on: 786-0 renal
NCI-H226 lung = tested on: NCI-H226 lung
HCC-2998 colon = tested on: HCC-2998 colon
MDA-MB-231 breast = tested on: MDA-MB-231 breast
SW-620 colon = tested on: SW-620 colon
SNB-75 CNS = tested on: SNB-75 CNS
HCT-15 colon = tested on: HCT-15 colon
KM12 colon = tested on: KM12 colon
SN12C renal = tested on: SN12C renal

Compound	GI50 (RPMI-8226 leukemia)	TGI (RPMI-8226 leukemia)	GI50 (786-0 renal)	TGI (786-0 renal)	GI50 (NCI-H226 lung)	TGI (NCI-H226 lung)	GI50 (HCC-2998 colon)	TGI (HCC-2998 colon)	GI50 (MDA-MB-231 breast)	TGI (MDA-MB-231 breast)	GI50 (SW-620 colon)	TGI (SW-620 colon)	GI50 (SNB-75 CNS)	TGI (SNB-75 CNS)	GI50 (HCT-15 colon)	TGI (HCT-15 colon)	GI50 (KM12 colon)	TGI (KM12 colon)	GI50 (SN12C renal)	TGI (SN12C renal)
CCCCCCCCC/C(=N\NC(=O)c1ccncc1)c1ccc(O)c(O)c1O	0.195 µM	31.5 µM	0.216 µM	5.75 µM	0.271 µM	14.7 µM	0.199 µM	> 36.6 µM	0.116 µM	31.5 µM	0.365 µM	28.3 µM	0.631 µM	> 100 µM	0.0635 µM	> 100 µM	0.348 µM	> 100 µM	0.207 µM	35 µM
C[C@@H](NC(=O)/C(C#N)=C/c1ccc([N+](=O)[O-])cc1)c1ccccc1	2.23 µM	5.95 µM	2.54 µM	8.84 µM	1.78 µM	3.69 µM	1.87 µM	3.53 µM	2.3 µM	5.23 µM	1.83 µM	3.81 µM	2.19 µM	8.33 µM	1.85 µM	3.88 µM	2.07 µM	4.18 µM	2.11 µM	4.85 µM
Cc1cc(O)cc(C)c1/C=C/c1cncc(C(N)=O)c1	7.91 µM	> 25 µM	8.6 µM	> 25 µM	> 15.6 µM	> 25 µM	21.9 µM	> 25 µM	2.15 µM	> 25 µM	1.4 µM	> 25 µM	2.81 µM	> 18.2 µM	1.54 µM	> 25 µM	1.25 µM	> 25 µM	2.92 µM	> 25 µM
N/C(=N/N=C/c1ccccc1)N/N=C\c1ccccc1	5.21 µM	29.7 µM	5.2 µM	43.9 µM	12.3 µM	> 100 µM	7.21 µM	37.8 µM	10.5 µM	> 100 µM	3.86 µM	> 100 µM	9.67 µM	> 100 µM	3.72 µM	30.3 µM	2.76 µM	> 100 µM	5.6 µM	> 100 µM
CCCCCCCCCCCCSC1=C(Cl)C(=O)C(OC)=C(OC)C1=O	0.239 µM	3.7 µM	4.18 µM	19.2 µM	5.9 µM	28.3 µM	2.41 µM	10.9 µM	1.86 µM	10.4 µM	0.63 µM	17.5 µM	1.21 µM	10.7 µM	1.69 µM	27.8 µM	1.85 µM	11.6 µM	1.75 µM	16.5 µM
CCNC(=O)Nc1ccc(Oc2ccnc3ccc4c(ccn4C)c23)cc1	> 100 µM	> 100 µM	35.5 µM	96.7 µM	28.2 µM	72.8 µM	28.2 µM	63.9 µM	26.3 µM	62.8 µM	> 100 µM	> 100 µM	59.9 µM	> 100 µM	37.9 µM	> 100 µM	37.7 µM	> 100 µM	20.9 µM	43.8 µM
S=C(NCCNC(=S)[S][Sn]([c]1ccccc1)([c]1ccccc1)[c]1ccccc1)[S][Sn]([c]1ccccc1)([c]1ccccc1)[c]1ccccc1	0.0234 µM	0.147 µM	0.0366 µM	0.104 µM	0.0639 µM	0.144 µM	0.0219 µM	0.0764 µM	0.0207 µM	0.0957 µM	0.014 µM	0.0379 µM	0.0162 µM	0.087 µM	0.0177 µM	0.0696 µM	0.0197 µM	0.0652 µM	0.0325 µM	0.218 µM
CONC(C)=O		> 100 µM		> 100 µM		> 100 µM		> 100 µM		> 100 µM		> 100 µM		> 100 µM		> 100 µM		> 100 µM		> 100 µM
COCCNc1ccc2c3c(cccc13)C(=O)N(CCN(C)C)C2=O	5.27 µM	15 µM	9.13 µM	> 25 µM	5.01 µM	17 µM	10.1 µM	> 25 µM	12.9 µM	> 25 µM	6.69 µM	> 25 µM	15.9 µM	> 25 µM	6.84 µM	> 25 µM	8.65 µM	> 25 µM	7.23 µM	> 25 µM
N#Cc1c(N2CCOCC2)nc(=S)[nH]c1-c1ccccc1	13.3 µM	> 100 µM	14.1 µM	> 100 µM	14.3 µM	> 100 µM	77.2 µM	> 100 µM	7.86 µM	> 100 µM	74.2 µM	> 100 µM	6.12 µM	> 100 µM	24.9 µM	> 100 µM	35 µM	> 100 µM	19 µM	> 100 µM
CN1CCC2(CC1)NC(=O)c1c(c3ccc(Cl)c(Cl)c3n1C)C2C#N (stereo not drawn)	2.94 µM	13.3 µM	10.1 µM	24 µM	6.52 µM	30.7 µM	1.89 µM	3.95 µM	5.19 µM	15.2 µM	8.48 µM	33.3 µM	4.46 µM	18.8 µM	3.98 µM	15.6 µM	3.84 µM	8.55 µM	5.82 µM	31.2 µM
CCN1C(=O)N(CC)C2C1NN=c1s/c(=C\c3ccco3)c(=O)n12 (stereo not drawn)	0.438 µM	> 100 µM	0.571 µM	> 100 µM		> 100 µM	1.98 µM	> 100 µM	0.961 µM	41.2 µM	0.439 µM	> 100 µM	0.239 µM		0.481 µM	> 100 µM	0.394 µM	> 100 µM	0.941 µM	> 100 µM
O=C(O)C(C(=O)O)P(=S)(S)c1ccccc1 (stereo not drawn)		> 100 µM		> 100 µM		> 100 µM		> 100 µM		> 100 µM		> 100 µM		> 100 µM		> 100 µM		> 100 µM		> 100 µM
Cc1ccc(-c2cc3c4c(nc5ccccc53)C(=O)c3cccnc3-c4n2)cc1	4.18 µM	54.9 µM	18.2 µM	52.5 µM	56.4 µM	> 100 µM	17.2 µM	33.2 µM	16.8 µM	> 69.9 µM	5.7 µM	> 51.1 µM	13.1 µM	> 53.6 µM	12.7 µM	49.9 µM	6.46 µM	25.7 µM	14.4 µM	30 µM
Clc1ccc(Nc2ccnc(N3CCN(c4ccnc5cc(Cl)ccc45)CC3)n2)cc1	2.75 µM	15.1 µM	2.38 µM	7.88 µM	3.96 µM	23.4 µM	3.39 µM	9.63 µM	2.22 µM	7.22 µM	2.88 µM	11.6 µM	1.79 µM	7.29 µM	2.49 µM	10 µM	3.04 µM	11.5 µM	3 µM	28.6 µM
C[C@]12CC[C@@H]3c4cc(O)c(O)cc4CC[C@H]3[C@@H]1CC[C@@H]2O	3.99 µM	30.3 µM	6.08 µM	> 100 µM	26.8 µM	> 100 µM	11.2 µM	41.8 µM	4.61 µM	52.5 µM	2.73 µM	> 42.5 µM	1.55 µM	8.32 µM	0.877 µM	24.8 µM	8.23 µM	22.3 µM	6.21 µM	> 100 µM
COC(=O)C1=CO[C@@H](OC2OC(CO)C(O)C(O)C2O)[C@H]2[C@@H](C)[C@@H](O)[C@@H](O)[C@@H]12 (stereo partly drawn)		> 100 µM		> 100 µM		> 100 µM		> 100 µM		> 100 µM		> 100 µM		> 100 µM		> 100 µM		> 100 µM		> 100 µM
